test system: HDAC; test: HDAC inhibition assay using an aminocoumarin derivative of an omega-acetylated lysine as substrate; format: biochemical; conditions: compound concentration 10 nM
Experimental: To determine the HDAC inhibitory properties of the compounds of the invention an assay was performed using an aminocoumarin derivative of an omega-acetylated lysine as substrate for the enzyme. This assay has been described in detail in the literature (Nucleic Acid Research 1999, 27, 2057–2058. Using the protocol described therein, the inhibitory effect of representative compounds was determined at a concentration of 10 nM. The observed inhibition rates for selected compounds are shown in Table 1: […]

SMILES | Inhibitory effect at 10 nM in % [%]
O=C(CCCCCCCN1c2cccc3cccc(c23)S1(=O)=O)NO [Example 1, 8-(1,1-dioxo-2H-naphtho[1,8-cd]isothiazol-2-yl)-octanoic acid hydroxyamide] | 64
O=C(CCCCCCN1c2cccc3cccc(c23)S1(=O)=O)NO [Example 2, 7-(1,1-dioxo-2H-naphtho[1,8-cd]isothiazol-2-yl)-heptanoic acid hydroxyamide] | 90
O=C(CCCCCCCN1C(=O)c2cccc3cccc1c23)NO [Example 3, 8-(2-oxo-2H-benzo[cd]indol-1-yl)-octanoic acid hydroxyamide] | 82
